As a reminder, the IC50 is the concentration at which inhibition is half-maximal.

The subject of experiment [1] is Human peripheral blood mononuclear cells (PBMC). Kind of experiment: TNF-α release from LPS-stimulated PBMC. The format is cell-based. The conditions noted are these: Lipopolysaccharide 1 microg/ml, 18 hours, AlphaLISA, read-out: TNF-α IC50 range. The method, then:
Human peripheral blood mononuclear cells (PBMC) were isolated from fresh buffy coats by density centrifugation using lymphoprep tubes (Medinor). Frozen PBMC's were washed in serum free assay buffer (RPMI1640 with 25 mM HEPES, 1% pen/strep, […] L glutamine, 0.5% human serum albumin) and living cells counted. Lipopolysaccharide (1 microg/ml; SIGMA) was added to the cells which were then transferred to 384 well tissue culture plates ([…]) containing titrated test compounds. The cells were incubated for 18 hours at 37° C. in serum free assay buffer and the level of TNFalpha in the supernatant was quantitated by AlphaLISA (PerkinElmer) by measuring fluorescence intensity at 615 nm.
Results were expressed as IC50 values calculated from inhibition curves using as controls the secretion in LPS stimulated wells and the secretion in cells incubated with 10 microM of a PDE4 inhibitor reference compound.
For orientation: Alpha assays give light when donor and acceptor beads are brought close together.

Experiment [2] addresses human PDE4D catalytic domain (UniProt no. Q08499 [S380-L740]) (Homo sapiens (Human), UniProt Q08499). Kind of experiment: PDE4 assay (TR-FRET, cAMP hydrolysis). Type of experiment: biochemical. The conditions noted are these: read-out: PDE4 IC50 range. The protocol: The human PDE4D catalytic domain (UniProt no. Q08499 [S380-L740]) was incubated with a mixture of non-labelled cAMP (cyclic adenosine monophosphate) and fluorescein amidite (FAM) conjugated cAMP and titrated test or reference compound.
Following brief incubation the enzymatic reaction was stopped by addition of binding buffer containing nanoparticles with immobilized trivalent metal ions capable of binding 1) AMP phospho groups and 2) terbium (Tb) donor fluorophores. Subsequent excitation of the Tb donor triggered time-resolved FRET to adjacent FAM acceptor molecules resulting in light emission. In the presence of a PDE4 inhibitor, AMP generation was reduced resulting in a lower fluorescence signal. The cAMP phosphodiester is not bound by the detection system.
Results were expressed as IC50 values (nM) calculated from inhibition curves where the TR-FRET signal was normalized to Tb fluorescence intensity and the negative (DMSO vehicle) and positive (10 microM a PDE4 inhibitor reference compound) controls.

Chain of human PDE4D catalytic domain (Q08499 380-740): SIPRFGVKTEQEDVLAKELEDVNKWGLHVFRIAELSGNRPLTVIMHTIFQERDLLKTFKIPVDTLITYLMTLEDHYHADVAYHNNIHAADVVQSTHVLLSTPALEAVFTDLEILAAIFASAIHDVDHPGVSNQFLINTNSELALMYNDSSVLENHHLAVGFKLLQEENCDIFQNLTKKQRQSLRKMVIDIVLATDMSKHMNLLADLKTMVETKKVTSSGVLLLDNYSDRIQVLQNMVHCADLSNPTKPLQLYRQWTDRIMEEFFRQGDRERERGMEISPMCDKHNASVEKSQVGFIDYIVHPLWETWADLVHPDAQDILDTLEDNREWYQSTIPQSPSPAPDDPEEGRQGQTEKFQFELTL

In the case of `CN(c1nc(N2CC(OC(=O)[C@H]3CC[C@@H](O)CC3)C2)nc2c1[S+](O)CC2)C1CCOCC1` (some centres unmarked) [Example 37, [1-[4-[methyl(tetra-hydropyran-4-yl)amino]-5-oxido-6,7-dihydro-thieno[3,2-d]pyrimidin-5-ium-2-yl]azetidin-3-yl] 4-hydroxycyclohexane-carboxylate], the IC50 in experiment [1] and in experiment [2] was less than 0.1 µM throughout.

Turning to `O=C(OC1CN(c2nc3c(c(NC4CCOCC4)n2)[S@@+]([O-])CC3)C1)C1CCOCC1` [Example 12, [1-[(5R)-5-oxido-4-(tetrahydropyran-4-ylamino)-6,7-dihydrothieno[3,2-d]pyrimidin-5-ium-2-yl]azetidin-3-yl] tetrahydropyran-4-carboxylate], the IC50 is less than 0.1 µM in experiment [1] and 0.1 to 0.5 µM in experiment [2].

In the case of `CN(c1nc(N2CC(OC(=O)c3cccnc3)C2)nc2c1[S@+](O)CC2)C1CCOCC1` [Example 63, [1-[(5R)-4-[methyl-(tetrahydropyran-4-yl)amino]-5-oxido-6,7-dihydrothieno[3,2-d]pyrimidin-5-ium-2-yl]azetidin-3-yl] pyridine-3-carboxylate], the figures for the IC50 in experiment [1] and in experiment [2] were less than 0.1 µM and 0.1 to 0.5 µM, respectively.

`CN(C)C(=O)c1ccc(C(=O)OC2CN(c3nc4c(c(N(C)C5CCOCC5)n3)[S+](O)CC4)C2)cc1` (centres unmarked) [Example 53, [1-[4-[methyl(tetra-hydropyran-4-yl)amino]-5-oxido-6,7-dihydro-thieno[3,2-d]pyrimidin-5-ium-2-yl]azetidin-3-yl] 4-(dimethylcarbamoyl)-benzoate]: the IC50 in experiment [1] and in experiment [2] was less than 0.1 µM throughout.

On to `CN(c1nc(N2CC(OC(=O)c3ccns3)C2)nc2c1[S+]([O-])CC2)C1CCOCC1` (centres unmarked) [Example 22, [1-[4-[methyl(tetra-hydropyran-4-yl)amino]-5-oxido-6,7-dihydro-thieno[3,2-d]pyrimidin-5-ium-2-yl]azetidin-3-yl] isothiazole-5-carboxylate], for which the IC50 in experiment [1] and in experiment [2] was less than 0.1 µM in each case.

In the case of `CSCCC(=O)OC1CN(c2nc3c(c(N(C)C4CCOCC4)n2)[S+]([O-])CC3)C1` (centres unmarked) [Example 15, [1-[4-[methyl(tetra-hydropyran-4-yl)amino]-5-oxido-6,7-dihydro-thieno[3,2-d]pyrimidin-5-ium-2-yl]azetidin-3-yl] 3-methylsulfanyl-propanoate], the IC50 in experiment [1] and in experiment [2] was less than 0.1 µM in each case.

Take `O=C(OC1CN(c2nc3c(c(NC4CC5(COC5)C4)n2)[S+]([O-])CC3)C1)C1CCOCC1` (centres unmarked) [Example 67, [1-[4-(6-oxaspiro[3.3]-heptan-2-ylamino)-5-oxido-6,7-dihydro-thieno[3,2-d]pyrimidin-5-ium-2-yl]azetidin-3-yl] tetrahydropyran-4-carboxylate]: the IC50 in experiment [1] and in experiment [2] was less than 0.1 µM in each case.

For the compound `CCCN(c1nc(N2CC(OC(=O)c3cnsc3)C2)nc2c1[S+]([O-])CC2)C1CCOCC1` (centres unmarked) [Example 9, [1-[4-[Propyl(tetrahydropyran-4-yl)amino]-5-oxido-6,7-dihydrothieno[3,2-d]pyrimidin-5-ium-2-yl]azetidin-3-yl] isothiazole-4-carboxylate], the IC50 in experiment [1] and in experiment [2] was more than 0.5 µM throughout.

`CN(c1nc(N2CC(OC(=O)c3ccn(C)n3)C2)nc2c1[S+]([O-])CC2)C1CCOCC1` (centres unmarked) [Example 17, [1-[4-[methyl(tetra-hydropyran-4-yl)amino]-5-oxido-6,7-dihydro-thieno[3,2-d]pyrimidin-5-ium-2-yl]azetidin-3-yl] 1-methylpyrazole-3-carboxylate]: the IC50 in experiment [1] and in experiment [2] was less than 0.1 µM in each case.

With `Cc1ccccc1C(=O)OC1CN(c2nc3c(c(N(C)C4CCOCC4)n2)[S+]([O-])CC3)C1` (centres unmarked) [Example 24, [1-[4-[methyl(tetra-hydropyran-4-yl)amino]-5-oxido-6,7-dihydro-thieno[3,2-d]pyrimidin-5-ium-2-yl]azetidin-3-yl] 2-methylbenzoate], the IC50 in experiment [1] and in experiment [2] was less than 0.1 µM each time.

With `O=C(OC1CN(c2nc3c(c(NC4CC5(COC5)C4)n2)[S+]([O-])CC3)C1)c1cnsc1` (racemic) [Example 65, [1-[4-(6-oxaspiro[3.3]-heptan-2-ylamino)-5-oxido-6,7-dihydrothieno-[3,2-d]pyrimidin-5-ium-2-yl]azetidin-3-yl] isothia-zole-4-carboxylate], the IC50 in experiment [1] and in experiment [2] was less than 0.1 µM each time.

In the case of `CN(c1nc(N2CC(OC(=O)c3ccc(F)cc3)C2)nc2c1[S+]([O-])CC2)C1CCOCC1` (centres unmarked) [Example 28, [1-[4-[methyl(tetra-hydropyran-4-yl)amino]-5-oxido-6,7-dihydro-thieno[3,2-d]pyrimidin-5-ium-2-yl]azetidin-3-yl] 4-fluorobenzoate], the IC50 in experiment [1] and in experiment [2] was less than 0.1 µM each time.

Consider `CC(=O)c1ccc(C(=O)OC2CN(c3nc4c(c(N(C)C5CCOCC5)n3)[S+](O)CC4)C2)cc1` (centres unmarked) [Example 48, [1-[4-[methyl(tetra-hydropyran-4-yl)amino]-5-oxido-6,7-dihydro-thieno[3,2-d]pyrimidin-5-ium-2-yl]azetidin-3-yl] 4-acetylbenzoate], for which the IC50 in experiment [1] and in experiment [2] was less than 0.1 µM each time.

On to `CCc1nc(C(=O)OC2CN(c3nc4c(c(N(C)C5CCOCC5)n3)[S+](O)CC4)C2)cs1` (centres unmarked) [Example 46, [1-[4-[methyl(tetra-hydropyran-4-yl)amino]-5-oxido-6,7-dihydro-thieno[3,2-d]pyrimidin-5-ium-2-yl]azetidin-3-yl] 2-ethylthiazole-4-carboxylate], for which the IC50 in experiment [1] and in experiment [2] was less than 0.1 µM throughout.

In the case of `Cc1cc(C(=O)OC2CN(c3nc4c(c(N(C)C5CCOCC5)n3)[S+](O)CC4)C2)cc(C)n1` (centres unmarked) [Example 41, [1-[4-[methyl(tetra-hydropyran-4-yl)amino]-5-oxido-6,7-dihydro-thieno[3,2-d]pyrimidin-5-ium-2-yl]azetidin-3-yl] 2,6-dimethylpyridine-4-carboxylate], the IC50 in experiment [1] and in experiment [2] was less than 0.1 µM in each case.

As to `Cc1cc(C(=O)OC2CN(c3nc4c(c(N(C)C5CCOCC5)n3)[S+]([O-])CC4)C2)sn1` (centres unmarked) [Example 34, [1-[4-[methyl(tetra-hydropyran-4-yl)amino]-5-oxido-6,7-dihydro-thieno[3,2-d]pyrimidin-5-ium-2-yl]azetidin-3-yl] 3-methylisothiazole-5-carboxylate], the IC50 in experiment [1] and in experiment [2] was less than 0.1 µM in each case.

For `COc1ccc(C(=O)OC2CN(c3nc4c(c(N(C)C5CCOCC5)n3)[S+]([O-])CC4)C2)cc1` (centres unmarked) [Example 42, [1-[4-[methyl(tetra-hydropyran-4-yl)amino]-5-oxido-6,7-dihydro-thieno[3,2-d]pyrimidin-5-ium-2-yl]azetidin-3-yl] 4-methoxybenzoate], the IC50 in experiment [1] and in experiment [2] was less than 0.1 µM in each case.

Regarding `CC(=O)c1cccc(C(=O)OC2CN(c3nc4c(c(N(C)C5CCOCC5)n3)[S+](O)CC4)C2)c1` (centres unmarked) [Example 47, [1-[4-[methyl(tetra-hydropyran-4-yl)amino]-5-oxido-6,7-dihydro-thieno[3,2-d]pyrimidin-5-ium-2-yl]azetidin-3-yl] 3-acetylbenzoate], the IC50 in experiment [1] and in experiment [2] was less than 0.1 µM throughout.

As for `CN(c1nc(N2CC(OC(=O)[C@H]3CC[C@H](O)CC3)C2)nc2c1[S+](O)CC2)C1CCOCC1` (some centres unmarked) [Example 39, [1-[4-[methyl(tetra-hydropyran-4-yl)amino]-5-oxido-6,7-dihydro-thieno[3,2-d]pyrimidin-5-ium-2-yl]azetidin-3-yl] 4-hydroxycyclohexane-carboxylate], the 50% inhibitory concentration (IC50) in experiment [1] and in experiment [2] was less than 0.1 µM throughout.

`CC(=O)N1CC[C@H](Nc2nc(N3CC(OC(=O)c4cscn4)C3)nc3c2[S@+](O)CC3)C1` [Example 73, [1-[4-[[(3S)-1-acetyl-pyrrolidin-3-yl]amino]-5-oxido-6,7-dihydro-thieno[3,2-d]pyrimidin-5-ium-2-yl]azetidin-3-yl]thiazole-4-carboxylate]: the IC50 was 0.1 to 0.5 µM in experiment [1] and less than 0.1 µM in experiment [2].

On to `CCS(=O)(=O)c1cccc(C(=O)OC2CN(c3nc4c(c(N(C)C5CCOCC5)n3)[S+]([O-])CC4)C2)c1` (centres unmarked) [Example 56, [1-[4-[methyl(tetra-hydropyran-4-yl)amino]-5-oxido-6,7-dihydro-thieno[3,2-d]pyrimidin-5-ium-2-yl]azetidin-3-yl] 3-ethylsulfonylbenzoate], for which the IC50 in experiment [1] and in experiment [2] was less than 0.1 µM in each case.

`CN(C)C(=O)N1CCC(C(=O)OC2CN(c3nc4c(c(N(C)C5CCOCC5)n3)[S+](O)CC4)C2)CC1` (centres unmarked) [Example 55, [1-[4-[methyl(tetra-hydropyran-4-yl)amino]-5-oxido-6,7-dihydro-thieno[3,2-d]pyrimidin-5-ium-2-yl]azetidin-3-yl] 1-(dimethylcarbamoyl)-piperidine-4-carboxylate]: the IC50 in experiment [1] and in experiment [2] was less than 0.1 µM throughout.

Source of the values: patent US11365204B2, “Substituted dihydrothienopyrimidines and their use as phosphodiesterase inhibitors” (UNION therapeutics A/S, priority 2017, dated 2022).
